This is an account of results in patent US20060063785A1, “Substituted pyrazolo[1,5-a] pyrimidines and process for making same” (priority 2004, published 2006).

Assay [1] concerns 80S14 (p21-deficient) cells. Kind of assay: Determination of selectivity of compounds for p21-/- cells: IC50 in 80S14 cells (SRB). Type of assay: cell-based, human. As for the experimental part:
• 1. 80S14 (p21-deficient) cells were cultured in RPMI 1640 medium (Gibco/Invitrogen Life technologies) supplemented with 10% fetal bovine serum (FBS, Gibco) and 10 μg/ml gentamycin (Gibco). Cells were maintained at 37° C. under 7% CO2. • 2. Cells were plated at 6×10^4/ml (0.2 ml/well; 12,000 cells/well) in 96-well microtiter plates (Falcon or Corning/Costar) and incubated at 37° C. overnight (18-24 hours). • 3. 2-5 μl of the test agent-[200 μg/ml stock in 20% DMSO/20 mM HEPES, pH 7.5 (Gibco)] was added to each well to achieve a final concentration of 2-5 μg/ml. Cells were incubated with the test compounds for 5 days at 37° C. • 4. Surviving cells were fixed with 50 μl 50% trichloroacetic acid (Sigma; 10% final concentration) for 1 hour at 4° C. • 5. Plates were rinsed twice with water (0.3 ml per wash using MRD8 robot), and allowed to dry. • 6. Sulforhodamine B (SRB) (Sigma; 0.4% in 1% acetic acid, 50 μl per well; MRD8 robot) was added and plates kept at room temperature for 10 minutes. • 7. Excess dye was removed by washing with 1% acetic acid (3 times, 0.3 ml per wash; MRD8 robot) and allowed to dry. • 8. The dye was solubilized in Tris base (Sigma; 10 mM, 150 μl per well). Plates were kept at room temperature for 30 minutes to allow the dye to diffuse. • 9. Absorbance was measured at 540 nm. • 10. The percentage of cells surviving drug treatment relative to control wells (no drug) was determined. • 11. The difference in % cell survival between the two cell lines was calculated. • 12. Compounds producing a difference score of >50 were considered to be selective for the p21-deficient cells and were evaluated further. Determination of Selectivity of Compounds for p21−/− Cells: • 1. 80S14 cells were cultured as described above. • 2. Cells were seeded in 96-well microtiter plates at 12,000 cells/well (either 0.15 ml/well of 8×10^4 cells/ml suspension, or 0.2 ml/well of 6×10^4 cells/ml suspension). Plates were incubated at 37° C. overnight (18-24 hours). • 3. Serial dilutions of the test agent were added to each well. Dilutions were prepared either in 40% DMSO/20% methanol/20 mM HEPES, pH 7.5 (Gibco) or directly in growth medium. One of two dose ranges were used: 5 pM to 50 μM or 170 pg/ml to 10 μg/ml. Cells were incubated with the test compounds for 5 days at 37° C. • 4. Surviving cells were fixed with 50 μl 50% trichloroacetic acid (Sigma; 10% final concentration) for 1 hour at 4° C. • 5. Plates were rinsed extensively in water, and allowed to dry. • 6. Sulforhodamine B (Sigma; 0.4% in 1% acetic acid, 70 μl per well) was added and plates kept at room temperature for 10 minutes. • 7. Excess dye was removed by washing 5 times with 1% acetic acid and plates were allowed to dry. • 8. The dye was solubilized in Tris base (Sigma; 10 mM, 150 μl per well). Plates were placed on a titer plate shaker (Lab Line Instruments) for 5 minutes to allow the dye to diffuse. • 9. Absorbance was measured at 560 nm.
10. The drug concentration which inhibits cell proliferation by 50% relative to untreated controls (IC50) was determined from cytotoxicity curves.

A further assay has as its system LoVo Colon cell line. Kind of assay: Cytotoxicity assay using LoVo colon cell line (SRB, IC50). To be noted: read-out: Inhibition of LoVo. Type of assay: cell-based. As for the experimental part: Cytotoxicity Assay Using LoVo Colon Cell Line: • 1. LoVo Colon cell lines was cultured in RPMI 1640 medium (Gibco/Invitrogen Life Sciences) supplemented with 10% fetal bovine serum (FBS, Gibco) and 50 μg/ml gentamicin (Gibco). Cells were maintained at 37° C. under 7% CO2. • 2. Cells were seeded in 96-well microtiter plates (Corning/Costar) in a volume of 0.15 ml of growth medium (4000 cells/well). Plates were incubated at 37° C. overnight (18-24 hours). • 3. Serial dilutions of the test agent were added to each well. Dilutions were prepared in growth medium. One of two dose ranges was used: 5 pM to 20 μM or […] to 10 μg/ml. Cells were incubated with the test compounds for 4 days at 37° C. • 4. Surviving cells were processed using the SRB asay, as described above.
5. The drug concentration that inhibits cell proliferation by 50% relative to untreated controls (IC50) was determined from cytotoxicity curves using the LSW Toolbox graphing application.

Setting [2] is: Homo sapiens, 80S14, 120 h, read-out: IC50 for 80S14 (μM).
[3] abbreviates: Cellular activity in 80S14 (p21-deficient) cells, SRB, class symbols, read-out: IC50 for 80S14.
The mark [4] stands for this setting: Cellular activity in LoVo cell, 4 days incubation, SRB assay.
[5] abbreviates: Homo sapiens, 96 h, LoVo colon cells, 4 days at 37° C., SRB.
Where [6] appears, read: 80S14 (p21-deficient) cells, 5 days at 37° C., SRB, read-out: IC50 for 80S14.
The mark [7] stands for this setting: Homo sapiens, 120 h, 80S14 (p21-deficient) cells, 5 days at 37° C., SRB, read-out: IC50 for 80S14.

Like-named read-outs stand apart in the source and are kept apart here.

Turning to `O=C(Nc1cccc(-c2ccnc3c(C(=O)c4cccs4)cnn23)c1)OCCCl` [Example 16, 2-chloroethyl 3-[3-(thien-2-ylcarbonyl)pyrazolo[1,5-a]pyrimidin-7-yl]phenylcarbamate], the IC50 in assay [1] (setting [2]) is less than 1 µM; in the assay on LoVo Colon cell line (Homo sapiens, LoVo, 96 h), less than 0.1 µM.

For the molecule `C#CCOC(=O)Nc1cccc(-c2ccnc3c(C(=O)c4cccs4)cnn23)c1` [Example 13, prop-2-ynyl 3-[3-(thien-2-ylcarbonyl)pyrazolo[1,5-a]pyrimidin-7-yl]phenylcarbamate], the IC50 is less than 1 µM in assay [1] (setting [2]) and 0.1 to 1 µM with LoVo Colon cell line (Homo sapiens, LoVo, 96 h).

For the molecule “3-(3,5-Dimethylphenyl)-7-[3-(2-ethyl-2H-tetrazol-5-yl)phenyllpyrazolo[1,5-a]pyrimidine [Example 384]”, the IC50 lay within 1 to 10 µM in assay [1] (setting [3]) and 0.1 to 1 µM in the assay on LoVo Colon cell line (setting [4]).

As to “(7-{3-[2-(2-Hydroxyethyl)-2H-tetraazol-5-yl]phenyl}pyrazolo[1,5-a]pyrimidin-3-yl)(thien-2-yl)methanone [Example 402]”, the IC50 in assay [1] (setting [3]) is less than 1 µM; with LoVo Colon cell line (setting [4]) it was 0.1 to 1 µM.

Take “3-Methyl-N-{^5-[3-(thien-2-ylcarbonyl)pyrazolo[1,5-a]pyrimidin-7-yl]thien-2-yl}butanamide [Example 240]”: the IC50 was in the range of 1 to 10 µM in assay [1] (setting [3]) and 1 to 20 µM with LoVo Colon cell line (setting [4]).

Take `CCCCCNC(=O)Nc1cccc(-c2ccnc3c(C(=O)c4cccs4)cnn23)c1` [Example 138, N-pentyl-N′-{3-[3-(thien-2-ylcarbonyl)pyrazolo[1,5-a]pyrimidin-7-yl]phenyl}urea]: the IC50 in the assay with LoVo Colon cell line (setting [5]) was less than 0.1 µM.

In the case of `COCCN(CCOC)C(=O)Nc1cccc(-c2ccnc3c(C(=O)c4cccs4)cnn23)c1` [Example 141, N,N-bis(2-methoxyethyl)-N′-{3-[3-(thien-2-ylcarbonyl)pyrazolo[1,5-a]pyrimidin-7-yl]phenyl}urea], the IC50 in the assay with LoVo Colon cell line (setting [5]) was in the range of 1 to 20 µM.

On to “(7-{3-[1-(Cyclobutylmethyl)-1H-pyrazol-3-yl]phenyl}pyrazolo[1,5-a]pyrimidin-3-yl)(thien-2-yl)methanone [Example 404]”, for which the results for the IC50 (in assay [1] (setting [3]); with LoVo Colon cell line (setting [4])) were less than 1 µM and less than 0.1 µM, respectively.

In the case of “(7-{3-[2-(Pyridin-2-ylmethyl)-2H-tetraazol-5-yl]phenyl}pyrazolo[1,5-a]pyriridin-3-yl)(thien-2-yl)methanone [Example 397]”, the IC50 in assay [1] (setting [3]) was less than 1 µM; in the assay with LoVo Colon cell line (setting [4]), 0.1 to 1 µM.

`O=C(Nc1cccc(-c2ccnc3c(C(=O)c4cccs4)cnn23)c1)OCC1CCCCC1` [Example 148, Cyclohexylmethyl 3-[3-(thien-2-ylcarbonyl)pyrazolo[1,5-a]pyrimidin-7-yl]phenylcarbarmate]: the IC50 in assay [1] (setting [6]) was less than 1 µM; in the assay with LoVo Colon cell line (LoVo colon cells, 4 days at 37° C., SRB), less than 0.1 µM.

Take “7-{3-[2-(Cyclobutylmethyl)-2H-tetraazol-5-yl]phenyl}-3-(3,5-dimethylphenyl)pyrazolo[1,5-a]pyrimidine [Example 381]”: the IC50 in assay [1] (setting [3]) lay in the range of 1 to 10 µM; with LoVo Colon cell line (setting [4]) it was 0.1 to 1 µM.

Consider “(7-{3-[1-(Pyridin-2-ylmethyl)-1H-pyrazol-3-yl]phenyl}pyrazolo[1,5-a]pyrimidin-3-yl)(thien-2-yl)methanone [Example 406]”, for which the IC50 in assay [1] (setting [3]) was less than 1 µM; in the assay with LoVo Colon cell line (setting [4]), less than 0.1 µM.

Regarding `O=C(Nc1cccc(-c2ccnc3c(C(=O)c4cccs4)cnn23)c1)c1ccc(Cl)cc1` [Example 71, 4-chloro-N-{3-[3-(thien-2-ylcarbonyl)pyrazolo[1,5-a]pyrimidin-7-yl]phenyl}benzamide], the IC50 in assay [1] (setting [7]) lay within 1 to 10 µM.

In the case of `O=C(c1cccs1)c1cnn2c(-c3cccc(NC(=O)[C@@H]4CCCN4)c3)ccnc12` [Example 67, N-{3-[3-(thien-2-ylcarbonyl)pyrazolo[1,5-a]pyrimidin-7-yl]phenyl}-L-prolinamide], in assay [1] (setting [7]), the IC50 was in the range of 1 to 10 µM.

Consider “N-{3-[3-(2-Thienylcarbonyl)pyrazolo[1,5-a]pyrimidin-7-yl]phenyl}-3-trifluoromethyl)benzamide [Example 193]”, for which, in assay [1] (setting [3]), the IC50 is less than 1 µM.

`CCS(=O)(=O)Nc1cccc(-c2ccnc3c(C(=O)c4cccs4)cnn23)c1` [Example 21, N-{3-[-(thien-2-ylcarbonyl)pyrazolo[1,5-a]pyrimidin-7-yl]phenyl}ethanesulfonamide]: the IC50 in assay [1] (setting [6]) is less than 1 µM.

For `COC(=O)CCC(=O)Nc1cccc(-c2ccnc3c(C(=O)c4cccs4)cnn23)c1` [Example 35, methyl 4-oxo-4-({3-[3-(thien-2-ylcarbonyl)pyrazolo[1,5-a]pyrimidin-7-yl]phenyl}anmino)butanoate], the IC50 in assay [1] (setting [6]) was in the range of 10 to 50 µM.

`CC(C)[C@H](N)C(=O)Nc1cccc(-c2ccnc3c(C(=O)c4cccs4)cnn23)c1` [Example 65, N-1-{3-[3-(thien-2-ylcarbonyl)pyrazolo[1,5-a]pyrimidin-7-yl]phenyl}-L-valinamide]: the IC50 in assay [1] (setting [6]) was in the range of 1 to 10 µM.

On to `CC(C)C[C@H](N)C(=O)Nc1cccc(-c2ccnc3c(C(=O)c4cccs4)cnn23)c1` [Example 61, N-1-{3-[3-(thien-2-ylcarbonyl)pyrazolo[1,5-a]pyrimidin-7-yl]phenyl}-L-leucinamide], for which, in assay [1] (setting [6]), the IC50 was 10 to 50 µM.

With `CN(C)CCNC(=O)Nc1cccc(-c2ccnc3c(C(=O)c4cccs4)cnn23)c1` [Example 134, N-[2-(dimethylamino)ethyl]-N′-{3-[3-(thien-2-ylcarbonyl)pyrazolo[1,5-a]pyrimidin-7-yl]phenyl}urea], in assay [1] (setting [7]), the IC50 lay within 10 to 50 µM.

For the molecule `Cc1cc(-c2cccc(NC(=O)C3CO3)c2)n2ncc(C(=O)c3cccs3)c2n1` (centres unmarked) [Example 191, {3-[5-Methyl-3-(2-thienylcarbonyl)pyrazolo[1,5-a]pyrimidin-7-yl]phenyl}-2-oxiranecarboxamide], the IC50 in assay [1] (setting [3]) was less than 1 µM.

Consider `C/C=C/C(=O)Nc1cccc(-c2ccnc3c(C(=O)c4cccs4)cnn23)c1` [Example 129, (2E)-N-{3-[3-(thien-2-ylcarbonyl)pyrazolo[1,5-a]pyrimidin-7-yl]phenyl}but-2-enamide], for which the IC50 in assay [1] (setting [7]) fell in the range of 1 to 10 µM.

With “3.5-Dinitro-N-{3-[3-(2-thienylcarbonyl)pyrazolo[1,5-a]pyrimidin-7-yl]phenyl}benzamide [Example 198]”, the IC50 in assay [1] (setting [3]) was in the range of 10 to 50 µM.

Turning to `O=C(Cc1cccs1)Nc1cccc(-c2ccnc3c(C(=O)c4cccs4)cnn23)c1` [Example 50, 2-thien-2-yl-N-{3-[3-(thien-2-ylcarbonyl)pyrazolo[1,5-a]pyrimidin-7-yl]phenyl}acetamide], the IC50 in assay [1] (setting [7]) is less than 1 µM.

Take `O=C(c1cccs1)c1cnn2c(-c3cccc(NC(=O)[C@@H]4CCCN4C(=O)C(F)(F)F)c3)ccnc12` [Example 41, N-{3-[3-(thien-2-ylcarbonyl)pyrazolo[1,5-a]pyrimidin-7-yl]phenyl}-1-(trifluoroacetyl)-L-prolinamide]: the IC50 in assay [1] (setting [7]) was 1 to 10 µM.
